Measurements published in ChEMBL document CHEMBL2331144, “Synthesis and anticancer activity of analogues of phenstatin, with a phenothiazine A-ring, as a new class of microtubule-targeting agents” (Bioorg Med Chem Lett, 2013).

Assays:
OVCAR-3 = experiment: Growth inhibition of human OVCAR3 cells after 48 hrs by sulforhodamine B assay; type: functional; conditions: OVCAR-3, 48 h
MDA-MB-468 = experiment: Growth inhibition of human MDA-MB-468 cells after 48 hrs by sulforhodamine B assay; type: functional; conditions: MDA-MB-468, 48 h
HT-29 = experiment: Growth inhibition of human HT-29 cells after 48 hrs by sulforhodamine B assay; type: functional; conditions: HT-29, 48 h
HOP-62 = experiment: Growth inhibition of human HOP62 cells after 48 hrs by sulforhodamine B assay; type: functional; conditions: HOP-62, 48 h
SR = experiment: Growth inhibition of human SR cells after 48 hrs by sulforhodamine B assay; type: functional
786-0 = experiment: Growth inhibition of human 786-0 cells after 48 hrs by sulforhodamine B assay; type: functional; conditions: 786-0, 48 h
MCF7 = experiment: Growth inhibition of human MCF7 cells after 48 hrs by sulforhodamine B assay; type: functional; conditions: MCF7, 48 h
OVCAR-4 = experiment: Growth inhibition of human OVCAR4 cells after 48 hrs by sulforhodamine B assay; type: functional; conditions: OVCAR-4, 48 h
SN12C = experiment: Growth inhibition of human SN12C cells after 48 hrs by sulforhodamine B assay; type: functional
SW-620 = experiment: Growth inhibition of human SW620 cells after 48 hrs by sulforhodamine B assay; type: functional; conditions: SW-620, 48 h
A549 = experiment: Growth inhibition of human A549/ATCC cells after 48 hrs by sulforhodamine B assay; type: functional; conditions: A549, 48 h
MDA-MB-231 = experiment: Growth inhibition of human MDA-MB-231 cells after 48 hrs by sulforhodamine B assay; type: functional; conditions: MDA-MB-231, 48 h
SF-268 = experiment: Growth inhibition of human SF268 cells after 48 hrs by sulforhodamine B assay; type: functional; conditions: SF-268, 48 h
LOX IMVI = experiment: Growth inhibition of human LOXIMVI cells after 48 hrs by sulforhodamine B assay; type: functional
SK-MEL-2 = experiment: Growth inhibition of human SK-MEL-2 cells after 48 hrs by sulforhodamine B assay; type: functional; conditions: SK-MEL-2, 48 h
NCI-H522 = experiment: Growth inhibition of human NCI-H522 cells after 48 hrs by sulforhodamine B assay; type: functional; conditions: NCI-H522, 48 h
A498 = experiment: Growth inhibition of human A498 cells after 48 hrs by sulforhodamine B assay; type: functional; conditions: A498, 48 h
Malme-3M = experiment: Growth inhibition of human MALME-3M cells after 48 hrs by sulforhodamine B assay; type: functional
PC-3 = experiment: Growth inhibition of human PC3 cells after 48 hrs by sulforhodamine B assay; type: functional; conditions: PC-3, 48 h
UO-31 = experiment: Growth inhibition of human UO31 cells after 48 hrs by sulforhodamine B assay; type: functional; conditions: UO-31, 48 h
CAKI-1 = experiment: Growth inhibition of human CAKI-1 cells after 48 hrs by sulforhodamine B assay; type: functional; conditions: CAKI-1, 48 h
NCI-H23 = experiment: Growth inhibition of human NCI-H23 cells after 48 hrs by sulforhodamine B assay; type: functional; conditions: NCI-H23, 48 h
[1] = Growth inhibition of human Hs 578T cells after 48 hrs by sulforhodamine B assay; type: functional
K562 = experiment: Growth inhibition of human K562 cells after 48 hrs by sulforhodamine B assay; type: functional; conditions: K562, 48 h
BT-549 = experiment: Growth inhibition of human BT549 cells after 48 hrs by sulforhodamine B assay; type: functional; conditions: BT-549, 48 h
TK-10 = experiment: Growth inhibition of human TK10 cells after 48 hrs by sulforhodamine B assay; type: functional; conditions: TK-10, 48 h
OVCAR-8 = experiment: Growth inhibition of human OVCAR8 cells after 48 hrs by sulforhodamine B assay; type: functional; conditions: OVCAR-8, 48 h
NCI-H460 = experiment: Growth inhibition of human NCI-H460 cells after 48 hrs by sulforhodamine B assay; type: functional; conditions: NCI-H460, 48 h
SNB-75 = experiment: Growth inhibition of human SNB75 cells after 48 hrs by sulforhodamine B assay; type: functional; conditions: SNB-75, 48 h
COLO 205 = experiment: Growth inhibition of human COLO205 cells after 48 hrs by sulforhodamine B assay; type: functional; conditions: COLO 205, 48 h
HCT-15 = experiment: Growth inhibition of human HCT15 cells after 48 hrs by sulforhodamine B assay; type: functional; conditions: HCT-15, 48 h
M14 = experiment: Growth inhibition of human M14 cells after 48 hrs by sulforhodamine B assay; type: functional; conditions: M14, 48 h
HCT-116 = experiment: Growth inhibition of human HCT116 cells after 48 hrs by sulforhodamine B assay; type: functional; conditions: HCT-116, 48 h
SK-OV-3 = experiment: Growth inhibition of human SKOV3 cells after 48 hrs by sulforhodamine B assay; type: functional; conditions: SK-OV-3, 48 h
DU-145 = experiment: Growth inhibition of human DU145 cells after 48 hrs by sulforhodamine B assay; type: functional; conditions: DU-145, 48 h
SF-539 = experiment: Growth inhibition of human SF539 cells after 48 hrs by sulforhodamine B assay; type: functional; conditions: SF-539, 48 h
UACC-62 = experiment: Growth inhibition of human UACC62 cells after 48 hrs by sulforhodamine B assay; type: functional; conditions: UACC-62, 48 h
SF-295 = experiment: Growth inhibition of human SF295 cells after 48 hrs by sulforhodamine B assay; type: functional; conditions: SF-295, 48 h
ACHN = experiment: Growth inhibition of human ACHN cells after 48 hrs by sulforhodamine B assay; type: functional
[2] = Growth inhibition of human NCI-ADR-RES cells after 48 hrs by sulforhodamine B assay; type: functional
IGROV-1 = experiment: Growth inhibition of human IGROV1 cells after 48 hrs by sulforhodamine B assay; type: functional; conditions: IGROV-1, 48 h
RPMI-8226 = experiment: Growth inhibition of human RPMI8226 cells after 48 hrs by sulforhodamine B assay; type: functional; conditions: RPMI-8226, 48 h
RXF 393 = experiment: Growth inhibition of human RXF393 cells after 48 hrs by sulforhodamine B assay; type: functional; conditions: RXF 393, 48 h
UACC-257 = experiment: Growth inhibition of human UACC257 cells after 48 hrs by sulforhodamine B assay; type: functional; conditions: UACC-257, 48 h
[3] = Growth inhibition of human HCC2998 cells after 48 hrs by sulforhodamine B assay; type: functional; conditions: HCC 2998, 48 h
Ovis aries = organism: Ovis aries; experiment: Inhibition of sheep brain tubulin polymerization at 100 uM using DAPI by fluorimetry
SK-MEL-5 = experiment: Growth inhibition of human SK-MEL-5 cells after 48 hrs by sulforhodamine B assay; type: functional; conditions: SK-MEL-5, 48 h
SK-MEL-28 = experiment: Growth inhibition of human SK-MEL-28 cells after 48 hrs by sulforhodamine B assay; type: functional; conditions: SK-MEL-28, 48 h
KM12 = experiment: Growth inhibition of human KM12 cells after 48 hrs by sulforhodamine B assay; type: functional; conditions: KM12, 48 h
MDA-MB-435 = experiment: Growth inhibition of human MDA-MB-435 cells after 48 hrs by sulforhodamine B assay; type: functional; conditions: MDA-MB-435, 48 h
HL-60(TB) = experiment: Growth inhibition of human HL-60(TB) cells after 48 hrs by sulforhodamine B assay; type: functional; conditions: HL-60, 48 h
T47D = experiment: Growth inhibition of human T47D cells after 48 hrs by sulforhodamine B assay; type: functional
OVCAR-5 = experiment: Growth inhibition of human OVCAR5 cells after 48 hrs by sulforhodamine B assay; type: functional; conditions: OVCAR-5, 48 h
CCRF-CEM = experiment: Growth inhibition of human CCRF-CEM cells after 48 hrs by sulforhodamine B assay; type: functional
MOLT-4 = experiment: Growth inhibition of human MOLT4 cells after 48 hrs by sulforhodamine B assay; type: functional; conditions: MOLT-4, 48 h

Compound: CN(C)Cc1cn(C(=O)N2c3ccccc3Sc3ccccc32)c2ccccc12
- GI50 (OVCAR-3): 1950 nM
- GI50 (MDA-MB-468): 1160 nM
- GI50 (HT-29): 1790 nM
- GI50 (HOP-62): 1680 nM
- GI50 (SR): 1760 nM
- GI50 (786-0): 1750 nM
- GI50 (MCF7): 1790 nM
- GI50 (OVCAR-4): 2040 nM
- GI50 (SN12C): 1980 nM
- GI50 (SW-620): 1840 nM
- GI50 (A549): 1680 nM
- GI50 (MDA-MB-231): 1170 nM
- GI50 (SF-268): 2920 nM
- GI50 (LOX IMVI): 1800 nM
- GI50 (SK-MEL-2): 2230 nM
- GI50 (NCI-H522): 1900 nM
- GI50 (A498): 1240 nM
- GI50 (Malme-3M): 1990 nM
- GI50 (PC-3): 1620 nM
- GI50 (UO-31): 1610 nM
- GI50 (CAKI-1): 1530 nM
- GI50 (NCI-H23): 4850 nM
- GI50 [1]: 2080 nM
- GI50 (K562): 1950 nM
- GI50 (BT-549): 2960 nM
- GI50 (TK-10): 1730 nM
- GI50 (OVCAR-8): 1780 nM
- GI50 (NCI-H460): 1810 nM
- GI50 (SNB-75): 1650 nM
- GI50 (COLO 205): 1850 nM
- GI50 (HCT-15): 1700 nM
- GI50 (M14): 1970 nM
- GI50 (HCT-116): 1740 nM
- GI50 (SK-OV-3): 2020 nM
- GI50 (DU-145): 1980 nM
- GI50 (SF-539): 1640 nM
- GI50 (UACC-62): 1720 nM
- GI50 (SF-295): 1750 nM
- GI50 (ACHN): 1500 nM
- GI50 [2]: 2530 nM
- GI50 (IGROV-1): 1730 nM
- GI50 (RPMI-8226): 1840 nM
- GI50 (RXF 393): 1210 nM
- GI50 (UACC-257): 1600 nM
- GI50 [3]: 1850 nM
- inhibition (Ovis aries): 9%
- GI50 (SK-MEL-5): 1600 nM
- GI50 (SK-MEL-28): 1720 nM
- GI50 (KM12): 1890 nM
- GI50 (MDA-MB-435): 1740 nM
- GI50 (HL-60(TB)): 2220 nM
- GI50 (T47D): 2040 nM
- GI50 (OVCAR-5): 1500 nM
- GI50 (CCRF-CEM): 2000 nM
- GI50 (MOLT-4): 2130 nM

Compound: COc1c(F)ccc(C(=O)N2c3ccccc3Sc3ccccc32)c1F
- GI50 (OVCAR-3): 4200 nM
- GI50 (MDA-MB-468): 1700 nM
- GI50 (HT-29): 3240 nM
- GI50 (HOP-62): 8370 nM
- GI50 (SR): 2330 nM
- GI50 (786-0): 7570 nM
- GI50 (MCF7): 5500 nM
- GI50 (OVCAR-4): 10300 nM
- GI50 (SN12C): 6070 nM
- GI50 (SW-620): 3680 nM
- GI50 (A549): 4070 nM
- GI50 (MDA-MB-231): 3660 nM
- GI50 (SF-268): 6500 nM
- GI50 (LOX IMVI): 4720 nM
- GI50 (SK-MEL-2): 3450 nM
- GI50 (NCI-H522): 2700 nM
- GI50 (A498): 2220 nM
- GI50 (Malme-3M): 3090 nM
- GI50 (PC-3): 2840 nM
- GI50 (UO-31): 6520 nM
- GI50 (CAKI-1): 4010 nM
- GI50 (NCI-H23): 4890 nM
- GI50 [1]: 6920 nM
- GI50 (K562): 3240 nM
- GI50 (BT-549): 5210 nM
- GI50 (TK-10): 10200 nM
- GI50 (OVCAR-8): 10000 nM
- GI50 (NCI-H460): 3670 nM
- GI50 (SNB-75): 2320 nM
- GI50 (COLO 205): 6470 nM
- GI50 (HCT-15): 3070 nM
- GI50 (M14): 3860 nM
- GI50 (HCT-116): 3600 nM
- GI50 (SK-OV-3): 12200 nM
- GI50 (DU-145): 14000 nM
- GI50 (SF-539): 5030 nM
- GI50 (UACC-62): 2680 nM
- GI50 (SF-295): 6100 nM
- GI50 (ACHN): 7960 nM
- GI50 [2]: 2970 nM
- GI50 (IGROV-1): 4870 nM
- GI50 (RPMI-8226): 3220 nM
- GI50 (RXF 393): 2290 nM
- GI50 (UACC-257): 6510 nM
- GI50 [3]: 11700 nM
- inhibition (Ovis aries): 10%
- GI50 (SK-MEL-5): 2950 nM
- GI50 (SK-MEL-28): 4930 nM
- GI50 (KM12): 4010 nM
- GI50 (MDA-MB-435): 1800 nM
- GI50 (HL-60(TB)): 3990 nM
- GI50 (T47D): 5240 nM
- GI50 (OVCAR-5): 24100 nM
- GI50 (CCRF-CEM): 5000 nM
- GI50 (MOLT-4): 4290 nM
